Reference: US10995090B2, “Substituted dihydrobenzofuran glycosidase inhibitors” (Asceneuron SA, priority 2016, dated 2021)

target: His-Tagged hOGA (Homo sapiens (Human), UniProt O60502); test: Human O-GlcNAcase enzyme inhibition assay; assay type: biochemical; conditions: FL-GlcNAc substrate, 60 min at room temperature, pH 6.5; read-out: OGA IC50
Protocol: Example B01: Human O-GlcNAcase Enzyme Inhibition Assay
5 μl of the appropriate concentration of a solution of inhibitor in Mcllvaine's Buffer (pH 6.5) in 2% DMSO (for a dose response curve calculation) is added into each well of a 384-well plate (Greiner, 781900). Then, 20 nM of His-Tagged hOGA and 10 μM of FL-GlcNAc (Fluorescein mono-beta-D-(2-deoxy-2-N-acetyl) glucopyranoside; Marker Gene Technologies Inc, M1485) were added to the 384-well plate for a final volume of 20 μl. After incubation for 60 min at room temperature, the reaction was terminated by the addition of 10 μL of stop buffer (200 mM glycine, pH 10.75).

His-Tagged hOGA, sequence (O60502 whole entry): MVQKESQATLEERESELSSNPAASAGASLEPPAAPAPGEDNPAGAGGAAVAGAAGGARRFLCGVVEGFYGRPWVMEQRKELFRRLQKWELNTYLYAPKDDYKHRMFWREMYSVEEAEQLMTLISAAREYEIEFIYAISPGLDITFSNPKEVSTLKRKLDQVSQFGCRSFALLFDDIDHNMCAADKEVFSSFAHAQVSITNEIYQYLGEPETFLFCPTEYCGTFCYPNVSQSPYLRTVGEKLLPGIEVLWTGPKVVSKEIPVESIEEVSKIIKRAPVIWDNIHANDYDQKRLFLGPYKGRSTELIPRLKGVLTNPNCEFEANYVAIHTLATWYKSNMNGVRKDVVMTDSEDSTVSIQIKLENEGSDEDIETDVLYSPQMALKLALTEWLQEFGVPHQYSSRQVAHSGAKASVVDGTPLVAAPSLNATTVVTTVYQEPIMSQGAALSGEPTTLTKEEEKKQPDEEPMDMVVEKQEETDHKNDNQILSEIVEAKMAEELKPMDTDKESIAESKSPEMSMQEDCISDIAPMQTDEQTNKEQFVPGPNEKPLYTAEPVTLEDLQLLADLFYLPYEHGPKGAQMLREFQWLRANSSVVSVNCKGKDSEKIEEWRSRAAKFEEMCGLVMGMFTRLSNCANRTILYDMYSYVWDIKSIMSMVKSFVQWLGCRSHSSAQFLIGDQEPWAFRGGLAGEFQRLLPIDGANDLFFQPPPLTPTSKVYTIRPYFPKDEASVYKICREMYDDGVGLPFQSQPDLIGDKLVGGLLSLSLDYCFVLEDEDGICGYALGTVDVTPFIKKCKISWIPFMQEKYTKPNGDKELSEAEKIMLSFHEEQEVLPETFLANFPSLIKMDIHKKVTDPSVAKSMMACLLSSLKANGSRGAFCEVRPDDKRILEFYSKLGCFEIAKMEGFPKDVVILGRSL

Row | IC50 [µM] | SMILES
1 | < 0.05 | CC1Cc2ccc(C(C)N3CCN(c4ncc(S(C)(=N)=O)cn4)CC3)cc2O1 (racemic) [Example 3, Imino(methyl)(2-(4-(1-(2-methyl-2,3-dihydrobenzofuran-6-yl)ethyl)piperazin-1-yl)pyrimidin-5-yl)-λ^6-sulfanone]
2 | 1 to 10 | CC(c1ccc2c(c1)OC(C)(C)C2)N1CCN(c2ncc(S(C)(=N)=O)cn2)CC1 (racemic) [Example 5, (2-(4-(1-(2,2-dimethyl-2,3-dihydrobenzofuran-6-yl)ethyl)piperazin-1-yl)pyrimidin-5-yl)(imino)(methyl)-λ^6-sulfanone]
3 | 0.05 to 0.2 | CC1Cc2ccc(C(C)N3CCN(c4ccc(S(C)(=O)=O)cc4)CC3)cc2O1 (racemic) [Example 7, 1-(1-(2-methyl-2,3-dihydrobenzofuran-6-yl)ethyl)-4-(4-(methylsulfonyl)phenyl)piperazine]
4 | < 0.05 | CC(=O)Nc1nnc(N2CCN(C(C)c3ccc4c(c3)O[C@H](C)C4)CC2)s1 (single isomer, unassigned) [Example 12]
5 | 0.2 to 1 | CC(=O)Nc1nnc(N2CCN(C(C)c3ccc4c(c3)O[C@@H](C)C4)CC2)s1 (single isomer, unassigned) [Example 16]
6 | 0.05 to 0.2 | CC(c1ccc2c(c1)O[C@@H](C)C2)N1CCN(c2ncc3c(n2)CCNC3=O)CC1 (single isomer, unassigned) [Example 18, 2-(4-((S)-1-((S)-2-methyl-2,3-dihydrobenzofuran-6-yl)ethyl)piperazin-1-yl)-7,8-dihydropyrido[4,3-d]pyrimidin-5(6H)-one or 2-(4-((R)-1-((S)-2-methyl-2,3-dihydrobenzofuran-6-yl)ethyl)piperazin-1-yl)-7,8-dihydropyrido[4,3-d]pyrimidin-5(6H)-one]
7 | < 0.05 | CC(=O)Nc1nnc(N2CCN(C(C)c3ccc4c(c3)O[C@H](C)C4)CC2)s1 (stereo partly drawn) [Example 9, N-(5-(4-(1-((R)-2-methyl-2,3-dihydrobenzofuran-6-yl)ethyl)piperazin-1-yl)-1,3,4-thiadiazol-2-yl)acetamide]
8 | < 0.05 | CC(c1ccc2c(c1)O[C@H](C)C2)N1CCN(c2ncc3c(n2)CCNC3=O)CC1 (stereo partly drawn) [Example 10, 2-(4-(1-((R)-2-methyl-2,3-dihydrobenzofuran-6-yl)ethyl)piperazin-1-yl)-7,8-dihydropyrido[4,3-d]pyrimidin-5(6H)-one]
9 | 0.2 to 1 | CC(c1ccc2c(c1)O[C@@H](C)C2)N1CCN(c2ncc3c(n2)CCNC3=O)CC1 (stereo partly drawn) [Example 15, 2-(4-(1-((S)-2-methyl-2,3-dihydrobenzofuran-6-yl)ethyl)piperazin-1-yl)-7,8-dihydropyrido[4,3-d]pyrimidin-5(6H)-one]

More lines, now with the values behind:

Row | SMILES | IC50 [µM]
10 | CC(=O)Nc1nnc(N2CCN(C(C)c3ccc4c(c3)OC(C)C4)CC2)s1 (racemic) [Example 1, N-(5-(4-(1-(2-methyl-2,3-dihydrobenzofuran-6-yl)ethyl)piperazin-1-yl)-1,3,4-thiadiazol-2-yl)acetamide] | < 0.05
11 | CC1Cc2ccc(C(C)N3CCN(c4ncc5c(n4)CCNC5=O)CC3)cc2O1 (racemic) [Example 2, 2-(4-(1-(2-methyl-2,3-dihydrobenzofuran-6-yl)ethyl)piperazin-1-yl)-7,8-dihydropyrido[4,3-d]pyrimidin-5(6H)-one] | < 0.05
12 | CC(=O)Nc1nnc(N2CCN(C(C)c3ccc4c(c3)OC(C)(C)C4)CC2)s1 (racemic) [Example 4, N-(5-(4-(1-(2,2-dimethyl-2,3-dihydrobenzofuran-6-yl)ethyl)piperazin-1-yl)-1,3,4-thiadiazol-2-yl)acetamide] | 1 to 10
13 | CC(c1ccc2c(c1)OC(C)(C)C2)N1CCN(c2ncc3c(n2)CCNC3=O)CC1 (racemic) [Example 6, 2-(4-(1-(2,2-dimethyl-2,3-dihydrobenzofuran-6-yl)ethyl)piperazin-1-yl)-7,8-dihydropyrido[4,3-d]pyrimidin-5(6H)-one] | 1 to 10
14 | CC(=O)Nc1nnc(N2CCN(C(C)c3cnc4c(c3)OC(C)C4)CC2)s1 (racemic) [Example 8, N-(5-(4-(1-(2-methyl-2,3-dihydrofuro[3,2-b]pyridin-6-yl)ethyl)piperazin-1-yl)-1,3,4-thiadiazol-2-yl)acetamide] | 0.2 to 1
15 | CC(=O)Nc1nnc(N2CCN(C(C)c3ccc4c(c3)O[C@H](C)C4)CC2)s1 (single isomer, unassigned) [Example 11] | 0.2 to 1
16 | CC(c1ccc2c(c1)O[C@H](C)C2)N1CCN(c2ncc3c(n2)CCNC3=O)CC1 (single isomer, unassigned) [Example 13, 2-(4-((S)-1-((R)-2-methyl-2,3-dihydrobenzofuran-6-yl)ethyl)piperazin-1-yl)-7,8-dihydropyrido[4,3-d]pyrimidin-5(6H)-one or 2-(4-((R)-1-((R)-2-methyl-2,3-dihydrobenzofuran-6-yl)ethyl)piperazin-1-yl)-7,8-dihydropyrido[4,3-d]pyrimidin-5(6H)-one] | < 0.05
17 | CC(=O)Nc1nnc(N2CCN(C(C)c3ccc4c(c3)O[C@@H](C)C4)CC2)s1 (single isomer, unassigned) [Example 17] | 0.05 to 0.2
18 | CC(=O)Nc1nnc(N2CCN(C(C)c3ccc4c(c3)O[C@@H](C)C4)CC2)s1 (stereo partly drawn) [Example 14, N-(5-(4-(1-((S)-2-methyl-2,3-dihydrobenzofuran-6-yl)ethyl)piperazin-1-yl)-1,3,4-thiadiazol-2-yl)acetamide] | 0.2 to 1
19 | CC(c1ccc2c(c1)O[C@H](C)C2)N1CCN(c2ncc(S(C)(=O)=O)cn2)CC1 (stereo partly drawn) [Example 19, 2-(4-(1-((R)-2-methyl-2,3-dihydrobenzofuran-6-yl)ethyl)piperazin-1-yl)-5-(methylsulfonyl)pyrimidine] | < 0.05
20 | CC(c1ccc2c(c1)O[C@H](C)C2)N1CCN(c2ncc(S(C)(=N)=O)cn2)CC1 (stereo partly drawn) [Example 20, imino(methyl)(2-(4-(1-((R)-2-methyl-2,3-dihydrobenzofuran-6-yl)ethyl)piperazin-1-yl)pyrimidin-5-yl)-λ^6-sulfanone] | < 0.05
21 | CC(c1ccc2c(c1)O[C@H](C)C2)N1CCN(c2n[nH]c(=O)s2)CC1 (stereo partly drawn) [Example 21, 5-(4-(1-((R)-2-methyl-2,3-dihydrobenzofuran-6-yl)ethyl)piperazin-1-yl)-1,3,4-thiadiazol-2(3H)-one] | 0.05 to 0.2
